According to EP4121415B1, “INHIBITORS OF CYTOKININ OXIDASE DERIVED FROM 1-[2-(HYDROXYALKYL)PHENYL]-3-YLUREA, USE THEREOF AND PREPARATIONS CONTAINING THESE DERIVATIVES” (Univerzita Palackého v Olomouci, priority 2020, dated 2021):
Where two headings read alike, the source gives them in different places.

What was measured:
[1] = molecular target: T1, maize enzyme cytokinin oxidase/dehydrogenase 1 (ZmCKX1) (Zea mays, UniProt Q9T0N8); experiment: ZmCKX1 inhibition, PMS/MTT assay; format: biochemical
T1 construct: made in house; host or cells: Yarrowia lipolytica
Description: The IC50 (concentration of a substance that causes 50% inhibition of the enzyme activity) was measured by PMS/MTT assay [phenazine methosulphate/3-(4,5-dimethylthiazol-2-yl)-2,5-diphenyltetrazolium bromide]. The assay was performed in 96-well microtiter plates. Each well contained a reaction mixture with a final concentration of: 0.1 M KH2PO4, pH 7.4, 1 mM MTT, 0.2 mM PMS, tested substance in a concentration range of 0.1 nM - 1 µM and 10 µM N^6-isopentenyladenine (iP) as a substrate. To this reaction mixture 100 µL of medium containing the active enzyme ZmCKX1 was added. The enzyme was produced by the yeast Yarrowia lipolytica and isolated according to the protocol (Kopečný D. et al., 2005, […] 87:1011-1022). The plates were incubated for 30 min at 37 °C and the enzymatic reaction was stopped by the addition of 25 µL of 35% acetic acid. Then, the absorbance at 578 nm was measured on a spectrophotometer, and the absorbance of the sample without the substrate was substracted as a reference value. The IC50 value was determined from the concentration-dependent curves in GraphPad Prism software. The values shown in Table 1 are the average of at least two measurements each performed in three repetitions. […] This also applies to 3,5-DCl-Ph-U derivatives.

[2] = system: segments of wheat leaves (Triticum aestivum cv. Hereward); experiment: wheat leaf senescence assay performed in the dark (chlorophyll retention in detached leaf segments); format: in vivo; settings: 10 micromolar, 96 hours in the dark at 25 °C, compared to yellow control (0,2% DMSO); for activation at 10 µM: Triticum aestivum, foliar, read-out: (% of chlorophyll above control)
Description: Seeds of winter wheat (Triticum aestivum cv. Hereward) was washed under running water for 4 hours and then sown in vermiculite saturated with Knop's nutrient solution. The trays with seeds were placed in an air-conditioned growth chamber with a 16/8 hour light regime (light intensity 50 µmol.m^-2.s^-1) and a temperature of 15 °C. After 7 days, the seedlings had developed the first […] and the second leaf began to grow. Top sections approximately 4 cm long were excised from the first leaves of 4 plants and their combined weight was adjusted to exactly 100 mg. The basal ends of these 4 leaf segments were placed in the wells of microtiter polystyrene plates containing solution (150 µL) of the tested derivative. The plates were placed in a plastic box with filter paper, which was saturated with water (to maintain the maximum humidity). After 96 hours of incubation in the dark at 25 °C, the leaf segments were removed and the chlorophyll was extracted to 5 mL of 80% ethanol by heating the leaf segments in ethanol at 80 °C for 40 min. The sample volume was then adjusted to 5 mL by adding 80% ethanol. The absorbance of the extracts was measured at 665 nm. Chlorophyll extracts from leaf segments incubated in deionized water (so-called yellow control) were also measured as controls. Freshly cut leaves (100 mg) were used as a green control, from which chlorophyll was extracted and measured in the same manner. The calculated values are the average of 5 replicates and the whole experiment was repeated two times. The tested compounds were dissolved in dimethyl sulfoxide (DMSO) to a concentration 10^-2 M. This stock solution was further diluted with water to a concentration of 10 micromolar. At this concentration, the substances were tested.

[3] = system: winter wheat (Triticum aestivum cv. Hereward); experiment: salt-induced senescence of wheat plants; format: in vivo; settings: 100 nM aqueous solution, 75 mM NaCl seven days after planting, assessed 30 days after planting
Description: To investigate the effects of compounds 64 and 66 on salt-induced senescence, seeds of winter wheat (Triticum aestivum cv. Hereward) were washed under running water for 4 hours and then sown on perlite soaked with water (control) or 100 nM aqueous solution of compounds 64 or 66. Trays with seeds were placed in a growth chamber at 25 °C for 16/8 h light/dark at an intensity of 50 µmol.m^-2.s^-1. Seven days after planting, the plants were treated with 75 mM NaCl solution. The plants were allowed to grow and the plant damage was assessed 30 days after planting.
While untreated plants have the first leaves dead and the second leaves yellow, plants treated with CKX inhibitors have the first leaves yellowing and the second leaves green. […] This in vivo experiment is evidence that CKX inhibitors prolong the photosynthetic activity of wheat plants that have been exposed to environmental stress.

[4] = 10 µM N6-isopentenyladenine (iP) as substrate, pH 7.4, 30 min at 37 °C, average of at least two measurements, read-out: IC50 (µM) ZmCKX1

T1 sequence (Q9T0N8 19-534): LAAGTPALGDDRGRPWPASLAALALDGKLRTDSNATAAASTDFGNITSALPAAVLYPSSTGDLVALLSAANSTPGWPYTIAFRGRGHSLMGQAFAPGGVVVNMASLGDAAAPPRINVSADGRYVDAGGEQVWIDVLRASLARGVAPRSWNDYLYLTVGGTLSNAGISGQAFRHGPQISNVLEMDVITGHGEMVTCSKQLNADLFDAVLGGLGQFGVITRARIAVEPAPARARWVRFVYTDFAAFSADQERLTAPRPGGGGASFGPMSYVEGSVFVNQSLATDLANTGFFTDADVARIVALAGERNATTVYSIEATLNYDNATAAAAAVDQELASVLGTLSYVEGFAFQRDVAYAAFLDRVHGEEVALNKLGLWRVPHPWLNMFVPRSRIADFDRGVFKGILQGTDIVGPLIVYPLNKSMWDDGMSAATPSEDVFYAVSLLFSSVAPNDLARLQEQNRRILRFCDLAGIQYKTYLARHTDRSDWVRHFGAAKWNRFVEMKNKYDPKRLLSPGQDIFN

Row | IC50 [1, 4] | Structure (SMILES) | IC50 [1] | activation at 10 µM [2] | (% of chlorophyll above control) [2] | plant damage and senescence under salinity stress [3] | total chlorophyll content in whole plants: untreated salinity-stressed plants have less chlorophyll than treated stressed plants [3]
1 |  | O=C(Nc1ccccc1)Nc1ccnc(Cl)c1 [CPPU, 1-(2-chloropyridin-4-yl)-3phenylurea, reference compound] | 20.5 µM | 12% |  |  | 
2 | 0.27 µM | O=C(Nc1ccnc(F)c1)Nc1cc(Cl)ccc1CO [Compound 2, 1-(5-chloro-2-hydroxymethylphenyl)-3-(2-fluoropyridin-4-yl)urea] |  | 23% |  |  | 
3 | 0.1 µM | O=C(Nc1cc(Cl)nc(Cl)c1)Nc1cc(Cl)ccc1CO [Compound 6, 1-(5-chloro-2-hydroxymethylphenyl)-3-(2,6-dichloropyridin-4-yl)urea] |  | 29% |  |  | 
4 |  | COc1cc(NC(=O)Nc2cc(Br)ccc2CO)ccn1 [Compound 8, 1-(5-bromo-2-hydroxy-methylphenyl)-3-(2-methoxypyridin-4-yl)urea] | 0.13 µM |  | 25% |  | 
5 | 0.095 µM | O=C(Nc1cc(F)nc(F)c1)Nc1cc(Cl)ccc1CCO [Compound 11, 1-[5-chloro-2-(2-hydroxyethyl)phenyl]-3-(2,6-difluoropyridin-4-yl)urea] |  | 31% |  |  | 
6 | 0.081 µM | COc1cc(NC(=O)Nc2cc(Cl)cc(Cl)c2CCO)ccn1 [Compound 16, 1-[3,5-dichloro-2-(2-hydroxyethyl)phenyl]-3-(2-methoxypyridin-4-yl)urea] |  | 35% |  |  | 
7 |  | COc1cc(Br)cc(NC(=O)Nc2ccccc2CO)c1 [Compound 22, 1-(3-bromo-5-methoxyphenyl)-3-(2-hydroxymethylphenyl)urea] | 0.26 µM |  | 25% |  | 
8 | 0.024 µM | COc1cc(NCCN)cc(NC(=O)Nc2cc(Cl)ccc2CO)c1 [Compound 25, 1-(5-chloro-2-hydroxymethylphenyl)-3-[3-(2-aminoethylamino)-5-methoxyphenyl]urea] |  | 45% |  |  | 
9 |  | CSc1cccc(NC(=O)Nc2cc(Br)ccc2CO)c1 [Compound 27, 1-(5-bromo-2-hydroxy-methylphenyl)-3-(3-methylsulphanylphenyl)urea] | 0.17 µM |  | 26% |  | 
10 |  | O=C(Nc1cccc(OC(F)(F)F)c1)Nc1cc(Br)ccc1CO [Compound 34, 1-(5-Bromo-2-hydroxymethylphenyl)-3-(3-trifluoromethoxyphenyl)urea] | 0.1 µM |  | 32% |  | 
11 | 0.01 µM | NCCNc1cc(NC(=O)Nc2cc(Cl)ccc2CO)cc(OC(F)(F)F)c1 [Compound 40, 1-(5-chloro-2-hydroxymethylphenyl)-3-[3-(2-aminoethylamino)-5-trifluoromethoxyphenyl]urea] |  | 39% |  |  | 
12 | 0.08 µM | O=C(Nc1cccc(SC(F)(F)F)c1)Nc1cc(F)ccc1CO [Compound 42, 1-(5-fluoro-2-hydroxymethylphenyl)-3-(3-trifluoromethylsulphanylphenyl)urea] |  | 25% |  |  | 
13 | 0.08 µM | COc1cccc(NC(=O)Nc2cc(F)ccc2CCO)c1 [Compound 51, 1-[5-fluoro-2-(2-hydroxyethyl)phenyl]-3-(3-methoxyphenyl)urea] |  | 30% |  |  | 
14 | 0.066 µM | COc1cccc(NC(=O)Nc2cc(Cl)ccc2CCO)c1 [Compound 52, 1-[5-chloro-2-(2-hydroxyethyl)phenyl]-3-(3-methoxyphenyl)urea] |  | 37% |  |  | 
15 | 0.008 µM | COc1cc(NCCN)cc(NC(=O)Nc2cc(Cl)ccc2CCO)c1 [Compound 59, 1-[5-chloro-2-(2-hydroxyethyl)phenyl]-3-[3-(2-aminoethylamino)-5-methoxyphenyl]urea] |  | 48% |  |  | 
16 | 0.035 µM | CSc1cccc(NC(=O)Nc2cc(Cl)ccc2CCO)c1 [Compound 60, 1-[5-chloro-2-(2-hydroxyethyl)phenyl]-3-(3-methylsulphanylphenyl)urea] |  | 36% |  |  | 
17 | 0.021 µM | O=C(Nc1cccc(OC(F)(F)F)c1)Nc1cc(Cl)ccc1CCO [Compound 62, 1-[5-chloro-2-(2-hydroxyethyl)phenyl]-3-(3-trifluoromethoxyphenyl)urea] |  | 39% |  |  | 
18 |  | O=C(Nc1cc(Cl)cc(OC(F)(F)F)c1)Nc1ccccc1CCO [Compound 64, 1-(3-Chloro-5-trifluoromethoxyphenyl)-3-[2-(2-hydroxyethyl)phenyl]urea] | 0.058 µM |  |  | reduced the damage and delayed the senescence | 27%
19 |  | O=C(Nc1cc(Br)cc(OC(F)(F)F)c1)Nc1ccccc1CCO [Compound 65, 1-(3-Bromo-5-trifluoromethoxyphenyl)-3-[2-(2-hydroxyethyl)phenyl]urea] | 0.035 µM |  | 30% |  | 
20 | 0.029 µM | O=C(Nc1cc(NCCO)cc(OC(F)(F)F)c1)Nc1ccccc1CCO [Compound 66, 1-[3-(2-Hydroxyethylamino)-5-trifluoromethoxyphenyl]-3-[2-(2-hydroxyethyl)phenyl]urea] |  | 36% |  | reduced the damage and delayed the senescence | 27%
21 | 0.074 µM | O=C(Nc1cccc(SC(F)(F)F)c1)Nc1ccccc1CCO [Compound 68, 1-[2-(2-Hydroxyethyl)phenyl]-3-(3-trifluoromethylsulphanylphenyl)urea] |  | 34% |  |  | 

Row | Structure (SMILES) | IC50 [1, 4] | IC50 [1] | activation at 10 µM [2] | (% of chlorophyll above control) [2] | plant damage and senescence under salinity stress [3] | total chlorophyll content in whole plants: untreated salinity-stressed plants have less chlorophyll than treated stressed plants [3]
22 | COc1cccc(NC(=O)Nc2cc(Br)ccc2CCO)c1 [Compound 53] | 0.074 µM |  |  | 35% |  | 
